Results as given in PubChem BioAssay (NCI).
“And” between values parts separate entries of the source, which are not always exact repeats. Equal values may be shown once.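 All cell lines were grown in 96-well plates and treated with compound for 48 hours. GI50 marks 50% less growth. TGI is the concentration that stops growth completely.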

What was measured:
Experiment in all cases: growth of human tumour cells (NCI), 48 h
[1] = tested on: SNB-19 CNS
[2] = tested on: TK-10 renal
[3] = tested on: OVCAR-4 ovarian
[4] = tested on: KM12 colon
[5] = tested on: A549 NSCLC
[6] = tested on: SK-MEL-5 melanoma
[7] = tested on: SN12C renal
[8] = tested on: UACC-62 melanoma
[9] = tested on: M14 melanoma
[10] = tested on: SK-MEL-28 melanoma

Row | SMILES | TGI [1] [µM] | TGI [2] [µM] | TGI [3] [µM] | TGI [4] [µM] | TGI [5] [µM] | TGI [6] | TGI [7] [µM] | TGI [8] | TGI [9] [µM] | TGI [10] [µM] | GI50 [1] [µM] | GI50 [2] [µM] | GI50 [3] [µM] | GI50 [4] [µM] | GI50 [5] [µM] | GI50 [6] [µM] | GI50 [7] [µM] | GI50 [8] [µM] | GI50 [9] [µM] | GI50 [10] [µM]
1 | CCCC(=O)[O-].N.N.N.N.N.[Co+3].[O-][Cl+3]([O-])([O-])[O-] | > 100 | > 100 | > 100 | > 100 | > 100 | > 100 µM | > 100 | > 100 µM | > 100 | > 100 | – | – | – | – | – | – | – | – | – | –
2 | COC1OC2=CCC3C(=O)NC(=O)C3C2[C@H](OCc2ccccc2)C1OCc1ccccc1 (stereo not given in full) | – | 3.12 | 5.32 | 19.4 | 40.1 | 34.1 µM | 3.14 | 6 µM | 3.19 | 3.3 | – | – | – | – | – | – | – | – | – | –
3 | O=C(N/N=C/c1cc(Br)cc(Br)c1[O-])c1ccccc1O.O=C(N/N=C/c1cc(Br)cc(Br)c1[O-])c1ccccc1O.[Ni+2] | 3.67 | 1.87 | 0.825 | 2.13 | 2.33 | 1.44 µM | – | 0.661 µM | 1.47 | 1.96 | – | – | – | – | – | – | – | – | – | –
4 | CCOC(=O)N1CCC(=C2c3ccc(Cl)cc3CCc3cccnc32)CC1 | – | 29.3 | 17.1 | 24.3 | > 100 | 9.22 µM | 24.4 | 18.9 µM | 29.1 | 20.3 | – | – | – | – | – | – | – | – | – | –
5 | CN(C)/N=N/c1nc[nH]c1C(N)=O | > 1000 | 828 | > 1000 | > 1000 | – | 96.2 µM and > 429 µM | > 1000 | > 98.6 µM and 363 µM | > 1000 | > 1000 | > 85.3 | 46.8 | 40.1 | > 156 | > 147 | 120 | 60.6 | 23.8 | 92.8 | 595
6 | O=c1ccc2nc(-c3ccccn3)nn(-c3ccccc3)c-2c1 | – | 3.12 | 3.04 | 28.9 | 42.3 | 5.53 µM | 5.33 | 4.3 µM | 13.6 | 3.24 | – | 1.66 | 1.56 | 14.5 | 18.4 | 2.3 | 2.24 | 1.95 | 3.39 | 1.69
7 | O=C(O)C(=O)/C=C(\O)c1ccc(Br)cc1 | > 100 | > 100 | > 100 | > 100 | > 100 | > 100 µM | > 100 | > 100 µM | > 100 | > 100 | – | – | – | – | – | – | – | – | – | –
8 | COc1ccc2nc3cc(Cl)ccc3c(NCCNc3c4ccc(Cl)cc4nc4ccc(OC)cc34)c2c1 | – | 3.42 | – | – | – | 3.27 µM | – | – | 3.58 | 3.4 | – | 1.97 | – | – | – | 1.81 | – | – | 1.96 | 1.86
9 | O=c1ccc2ccc(O)cc2o1 | > 100 | > 100 | > 100 | > 100 | > 100 | > 100 µM | > 100 | > 100 µM | > 100 | > 100 | – | – | – | – | – | – | – | – | – | –
10 | NCCCNCCCCN1CC1 | > 23.8 | > 23.2 | 1.53 | > 30.7 | > 44.5 | 11.7 µM | – | 68.8 µM | > 22.6 | > 20.1 | – | – | – | – | – | – | – | – | – | –
11 | C=C1C(=O)OC2CC3(C)OC3CC/C(C)=C/C(OC(C)=O)C12 (stereo not given) | 31 | 12.8 | 16.1 | 39.9 | 33.7 | 20.4 µM | 26.3 | 22.9 µM | 9.86 | 16.8 | – | – | – | – | – | – | – | – | – | –
12 | COc1ccc(Sc2ccccc2N)cc1 | > 100 | > 100 | > 100 | > 100 | > 100 | 62.9 µM | > 100 | > 100 µM | > 100 | 77.3 | – | – | – | – | – | – | – | – | – | –
13 | Cc1ccc(CCC(=O)C(=O)O)s1 | > 100 | > 100 | > 100 | > 100 | > 100 | > 100 µM | > 100 | 48.6 µM | > 100 | > 100 | – | – | – | – | – | – | – | – | – | –
14 | Cc1nc2ccccc2c(/C=C/c2ccc(Cl)cc2)c1C(=O)/C=C/c1ccccc1 | – | – | – | 3.04 | 6.54 | 2.96 µM | 3.36 | – | – | 3.22 | – | – | – | 1.56 | 2.24 | 1.61 | 1.67 | – | – | 1.74
15 | COC(=O)C(NC(=O)c1ccccc1)C(c1ccc(Cl)cc1)P(=O)(OC)OC (stereo not given) | > 100 | > 100 | > 100 | > 100 | > 100 | > 100 µM | > 100 | > 100 µM | > 100 | > 100 | – | – | – | – | – | – | – | – | – | –
16 | CCOc1ccc2c(c1)c(=O)c1c(NCCN(CC)CC)ccc3nnn2c31 | > 100 | 37.9 | 26.3 | 37.1 | > 55.5 | 31.1 µM | > 100 | > 100 µM | > 54.8 | > 55 | – | – | – | – | – | – | – | – | – | –
17 | CCCCNC(=O)/N=C/c1c(O)c2ccccc2oc1=O | > 100 | > 100 | > 100 | – | > 100 | > 100 µM | > 100 | > 100 µM | > 100 | > 100 | – | – | – | – | – | – | – | – | – | –
18 | COc1ccc(N2NC(c3ccccc3)(c3ccccc3)C(C)C2=O)cc1 (stereo not given) | > 100 | > 100 | > 100 | > 100 | > 100 | > 100 µM | > 100 | > 100 µM | > 100 | > 100 | – | – | – | – | – | – | – | – | – | –
19 | CC(C)(C)CC(C)(C)c1ccc(O)c(C[N+](C)(C)[O-])c1 | > 100 | > 100 | > 100 | > 100 | > 100 | > 100 µM | > 100 | > 100 µM | > 100 | > 100 | – | – | – | – | – | – | – | – | – | –
20 | Cc1ccc(NC(=O)CSC(N)=O)cc1C | > 100 | > 100 | > 100 | > 100 | > 100 | > 100 µM | > 100 | > 100 µM | > 100 | > 100 | – | – | – | – | – | – | – | – | – | –
21 | COc1ccc(C[C@H](N)C(=O)N2C[C@@H](CO)C[C@@H](n3ccc(=O)[nH]c3=O)C2)cc1 | > 100 | > 100 | > 100 | > 100 | > 100 | > 100 µM | > 100 | > 100 µM | > 100 | > 100 | – | – | – | – | – | – | – | – | – | –
22 | COc1ccc(-c2nn(-c3ccc(NC(=O)Nc4ccc(Cl)c(C(F)(F)F)c4)cc3)cc2-c2ccncc2)cc1Cl | 11 | 5.27 | 21.9 | 4.34 | > 100 | 2.82 µM | 8.69 | 2.75 µM | 3.13 | 3.64 | 2.35 | 1.41 | 1.98 | 1.22 | 1.2 | 1.5 | 2.23 | 1.33 | 1.49 | 1.67
